From ChEMBL document CHEMBL3046862, “Structure-activity relationship of aliphatic compounds for nematicidal activity against pine wood nematode (Bursaphelenchus xylophilus)” (2010)

What was measured:
Format in all cases: functional
[1] = test system: Bursaphelenchus xylophilus; test: Nematicidal activity against Bursaphelenchus xylophilus at 0.5 mg/ml measured after 48 hr under microscope
[2] = test system: Bursaphelenchus xylophilus; test: Nematicidal activity against Bursaphelenchus xylophilus assessed as mortality at 0.25 mg/ml measured after 48 hr under microscope
[3] = test system: Bursaphelenchus xylophilus; test: microbe, parasite or virus in culture; settings: 48 h, at 0.125 mg/mL
Description: Nematicidal activity against Bursaphelenchus xylophilus assessed as mortality at 0.125 mg/ml measured after 48 hr under microscope

[4] = test system: Bursaphelenchus xylophilus; test: Nematicidal activity against Bursaphelenchus xylophilus assessed as mortality at 0.0625 mg/ml measured after 48 hr under microscope

| Compound | mortality at 500 µg/mL [1] | mortality at 250 µg/mL [2] | mortality at 125 µg/mL [3] | mortality at 62.5 µg/mL [4] |
| --- | --- | --- | --- | --- |
| CCCCCCCCCCC | 1.6% | – | – | – |
| CCCCCCCCCCCCCC | 1.7% | – | – | – |
| CCCCCCCCCCCCC | 3.3% | – | – | – |
| CCCCCCCCCC/C=C/C=O | 4.9% | – | – | – |
| CCCCCCC/C=C/CO | 100% | 100% | 100% | 43.3% |
| CCCCCCCCC/C=C/C=O | 5.1% | – | – | – |
| CCCCCCCCCCC/C=C/C=O | 3.3% | – | – | – |
| CCCCCCCCCCCCCCOC(C)=O | 0.9% | – | – | – |
| CCC/C=C/CO | 13% | – | – | – |
| CCCC/C=C/CO | 50.9% | – | – | – |
| CCCCC/C=C/CO | 97.4% | 31.5% | – | – |
| CCCCCC/C=C/CO | 100% | 100% | 45.5% | – |
| CCCCCCCC/C=C/CO | 100% | 100% | 100% | 45.1% |
| CCCCCCCCC/C=C/CO | 4.7% | – | – | – |
| CCCCCCCCCC/C=C/CO | 3.5% | – | – | – |
| CCCCCCCCCCC/C=C/CO | 2.6% | – | – | – |
| CCC/C=C/C=O | 95.6% | 83.1% | 22% | – |
| CCCCCCCCCCCCCO | 4.4% | – | – | – |
| CCCCC/C=C/C=O | 100% | 99% | 90.6% | 22.6% |
| CCCCCCCC/C=C/C=O | 24.8% | – | – | – |
| CCCC/C=C/C=O | 100% | 97.8% | 76.3% | 18% |

| Compound | mortality at 500 µg/mL [1] | mortality at 250 µg/mL [2] | mortality at 125 µg/mL [3] | mortality at 62.5 µg/mL [4] |
| --- | --- | --- | --- | --- |
| CCCCCCCO [1-HEPTANOL] | 29.8% | – | – | – |
| CCCCCCO [1-HEXANOL] | 12.6% | – | – | – |
| CCCCCC/C=C/C=O [2-NONENAL] | 100% | 100% | 99.8% | 47.4% |
| CCCCCCCCCC=O [DECANAL] | 7.9% | – | – | – |
| CCCCCCCCCC [DECANE] | 1.6% | – | – | – |
| CCCCCCCCCC(=O)O [DECANOIC ACID] | 100% | 100% | 100% | 59.8% |
| CCCCCCCCCCO [DECANOL] | 100% | 100% | 100% | 15.6% |
| CCCCCCCCCCOC(C)=O [DECYLACETATE] | 1.6% | – | – | – |
| CCCCCCCCCCCC=O [DODECANAL] | 6.6% | – | – | – |
| CCCCCCCCCCCC [DODECANE] | 1.6% | – | – | – |
| CCCCCCCCCCCC(=O)O [DODECANOATE] | 1.9% | – | – | – |
| CCCCCCCCCCCCO [DODECANOL] | 3.1% | – | – | – |
| CCCCCCCCCCCCOC(C)=O [DODECYLACETATE] | 1.7% | – | – | – |
| CCCCCCC=O [HEPTANAL] | 6% | – | – | – |
| CCCCCCC [HEPTANE] | 2.6% | – | – | – |
| CCCCCCC(=O)O [HEPTANOATE] | 100% | 53.7% | – | – |
| CCCCCCCOC(C)=O [HEPTYLACETATE] | 7.4% | – | – | – |
| CCCCCC=O [HEXANAL] | 4.2% | – | – | – |
| CCCCCC [HEXANE] | 4.4% | – | – | – |
| CCCCCC(=O)O [HEXANOATE] | 31.3% | – | – | – |
| CCCCCCOC(C)=O [HEXYL ACETATE] | 1.5% | – | – | – |

| Compound | mortality at 500 µg/mL [1] | mortality at 250 µg/mL [2] | mortality at 125 µg/mL [3] | mortality at 62.5 µg/mL [4] |
| --- | --- | --- | --- | --- |
| CCCCCCCCCCCCCC(=O)O [MYRISTIC ACID] | 3.8% | – | – | – |
| CCCCCCCCCCCCCCO [MYRISTYL ALCOHOL] | 4% | – | – | – |
| CCCCCCCCC=O [NONANAL] | 14.2% | – | – | – |
| CCCCCCCCC [NONANE] | 2.3% | – | – | – |
| CCCCCCCCC(=O)O [NONANOATE] | 100% | 100% | 100% | 40.1% |
| CCCCCCCCCO [NONANOL] | 100% | 100% | 81% | 4.7% |
| CCCCCCCCCOC(C)=O [NONYLACETATE] | 3.1% | – | – | – |
| CCCCCCCC=O [OCTANAL] | 13.6% | – | – | – |
| CCCCCCCC [OCTANE] | 3.8% | – | – | – |
| CCCCCCCC(=O)O [OCTANOIC ACID] | 100% | 98.9% | 50.1% | – |
| CCCCCCCCO [OCTANOL] | 100% | 17% | – | – |
| CCCCCCCCOC(C)=O [OCTYL ACETATE] | 4.9% | – | – | – |
| CCCCCCCCCCCCCC=O [TETRADECANAL] | 3.5% | – | – | – |
| CCCCCCCCCCCCC=O [TRIDECANAL] | 7.6% | – | – | – |
| CCCCCCCCCCCCC(=O)O [TRIDECANOATE] | 4.4% | – | – | – |
| CCCCCCCCCCCCCOC(C)=O [TRIDECYLACETATE] | 1.4% | – | – | – |
| CCCCCCCCCCC=O [UNDECANAL] | 7.4% | – | – | – |
| CCCCCCCCCCC(=O)O [UNDECANOATE] | 98.5% | 96% | 51.3% | – |
| CCCCCCCCCCCO [UNDECANOL] | 100% | 100% | 99.4% | 98.3% |
| CCCCCCCCCCCOC(C)=O [UNDECYLACETATE] | 2.3% | – | – | – |
